Laboratory results reported in publication PMC5362750, “Discovery of Potent, Selective, and Orally Bioavailable Small-Molecule Modulators of the Mediator Complex-Associated Kinases CDK8 and CDK19” (Journal of Medicinal Chemistry, 2016).

Assays:
KDR = target: T1, KDR (Homo sapiens, UniProt P35968); assay: Kinase panel (Millipore); assay type: biochemical; conditions: 1 µM, ATP at Km
T1 construct: purchased Millipore (KinaseProfiler) kinase panel

PLK3 = target: T2, PLK3 (Homo sapiens, UniProt Q9H4B4); assay: Kinase panel (Millipore); assay type: biochemical; conditions: 1 µM, ATP at Km
T2 construct: purchased Millipore (KinaseProfiler) kinase panel

5-HT2C (h) = 5-HT2C (h) (Homo sapiens, UniProt P28335); assay: biochemical; conditions: read-out: % Inhibition of Control Specific Binding
[…](V561D) = […](V561D) (Homo sapiens, UniProt P16234, V561D); conditions: 1 µM, ATP at Km
CDK6/CYCLIND3 = CDK6/CYCLIND3 (Homo sapiens, UniProt Q00534); conditions: 1 µM, ATP at Km
[1] = system: glycine (strychnine-insensitive); conditions: 10 µM, antagonist radioligand
LKB1 = target: T3, LKB1 (Homo sapiens, UniProt Q15831); assay: Kinase panel (Millipore); assay type: biochemical; conditions: 1 µM, ATP at Km
T3 construct: purchased Millipore (KinaseProfiler) kinase panel

[…](D842V) = […](D842V) (Homo sapiens, UniProt P16234, D842V); conditions: 1 µM, ATP at Km
MAPK1 = MAPK1 (Homo sapiens, UniProt P27361); assay: Kinase panel (Millipore); assay type: biochemical; conditions: 1 µM, ATP at Km
SAPK4 = SAPK4 (Homo sapiens, UniProt O15264); assay: Kinase panel (Millipore); assay type: biochemical; conditions: 1 µM, ATP at Km
cMET (D1246N) = cMET (D1246N) (Homo sapiens, UniProt P08581, D1228N); conditions: 1 µM, ATP at Km
FMS(Y969C) = FMS(Y969C) (Homo sapiens, UniProt P07333, Y969C); conditions: 1 µM, ATP at Km
MEK1 = MEK1 (Homo sapiens, UniProt Q02750); assay: Kinase panel (Millipore); assay type: biochemical; conditions: 1 µM, ATP at Km
Sequence of MEK1 (Q02750 whole entry): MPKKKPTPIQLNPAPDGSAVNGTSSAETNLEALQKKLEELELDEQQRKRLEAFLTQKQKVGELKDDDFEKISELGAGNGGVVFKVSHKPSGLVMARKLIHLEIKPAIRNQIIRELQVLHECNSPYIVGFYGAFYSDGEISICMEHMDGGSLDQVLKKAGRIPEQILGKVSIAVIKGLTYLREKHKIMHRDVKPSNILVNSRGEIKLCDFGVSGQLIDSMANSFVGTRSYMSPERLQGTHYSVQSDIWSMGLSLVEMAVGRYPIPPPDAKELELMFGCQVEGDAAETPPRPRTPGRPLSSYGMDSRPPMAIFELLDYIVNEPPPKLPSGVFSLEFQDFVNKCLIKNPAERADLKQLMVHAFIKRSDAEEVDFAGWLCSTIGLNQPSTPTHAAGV

PRKX = target: T4, PRKX (Homo sapiens, UniProt P51817); assay: Kinase panel (Millipore); assay type: biochemical; conditions: 1 µM, ATP at Km
T4 construct: purchased Millipore (KinaseProfiler) kinase panel

SAPK2A = SAPK2A (Homo sapiens, UniProt Q16539); assay: Kinase panel (Millipore); assay type: biochemical; conditions: 1 µM, ATP at Km
DCAMKL2 = target: T5, DCAMKL2 (Homo sapiens, UniProt Q8N568); assay: Kinase panel (Millipore); assay type: biochemical; conditions: 1 µM, ATP at Km
T5 construct: purchased Millipore (KinaseProfiler) kinase panel

TNF-alpha (h) = conditions: 10 µM, agonist radioligand
N muscle-type (h) = N muscle-type (h) (Homo sapiens, UniProt P02708+P07510+Q07001); assay: biochemical; conditions: read-out: % Inhibition of Control Specific Binding
MLK1 = target: T6, MLK1 (Homo sapiens, UniProt P80192); assay: Kinase panel (Millipore); assay type: biochemical; conditions: 1 µM, ATP at Km
T6 construct: purchased Millipore (KinaseProfiler) kinase panel

CCR2 (h) = target: T7, CCR2 (h) (Homo sapiens, UniProt P41597); assay: CEREP binding assay; conditions: agonist radioligand, read-out: % Inhibition of Control Specific Binding
T7 construct: purchased Millipore (KinaseProfiler) kinase panel
T7 sequence (P41597 whole entry): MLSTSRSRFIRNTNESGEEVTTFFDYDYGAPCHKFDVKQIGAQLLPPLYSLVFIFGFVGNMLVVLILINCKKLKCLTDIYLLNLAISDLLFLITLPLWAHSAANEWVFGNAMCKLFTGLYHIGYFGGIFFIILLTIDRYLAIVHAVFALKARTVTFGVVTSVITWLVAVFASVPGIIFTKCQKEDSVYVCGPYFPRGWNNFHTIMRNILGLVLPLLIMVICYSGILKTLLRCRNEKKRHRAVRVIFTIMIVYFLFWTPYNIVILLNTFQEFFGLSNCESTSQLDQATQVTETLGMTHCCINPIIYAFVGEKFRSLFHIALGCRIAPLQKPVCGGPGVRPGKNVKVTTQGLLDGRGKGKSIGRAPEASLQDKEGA

PDGFRBETA = target: T8, PDGFRBETA (Homo sapiens, UniProt P09619); assay: Kinase panel (Millipore); assay type: biochemical; conditions: 1 µM, ATP at Km
T8 construct: purchased Millipore (KinaseProfiler) kinase panel
T8 sequence (P09619 33-1106): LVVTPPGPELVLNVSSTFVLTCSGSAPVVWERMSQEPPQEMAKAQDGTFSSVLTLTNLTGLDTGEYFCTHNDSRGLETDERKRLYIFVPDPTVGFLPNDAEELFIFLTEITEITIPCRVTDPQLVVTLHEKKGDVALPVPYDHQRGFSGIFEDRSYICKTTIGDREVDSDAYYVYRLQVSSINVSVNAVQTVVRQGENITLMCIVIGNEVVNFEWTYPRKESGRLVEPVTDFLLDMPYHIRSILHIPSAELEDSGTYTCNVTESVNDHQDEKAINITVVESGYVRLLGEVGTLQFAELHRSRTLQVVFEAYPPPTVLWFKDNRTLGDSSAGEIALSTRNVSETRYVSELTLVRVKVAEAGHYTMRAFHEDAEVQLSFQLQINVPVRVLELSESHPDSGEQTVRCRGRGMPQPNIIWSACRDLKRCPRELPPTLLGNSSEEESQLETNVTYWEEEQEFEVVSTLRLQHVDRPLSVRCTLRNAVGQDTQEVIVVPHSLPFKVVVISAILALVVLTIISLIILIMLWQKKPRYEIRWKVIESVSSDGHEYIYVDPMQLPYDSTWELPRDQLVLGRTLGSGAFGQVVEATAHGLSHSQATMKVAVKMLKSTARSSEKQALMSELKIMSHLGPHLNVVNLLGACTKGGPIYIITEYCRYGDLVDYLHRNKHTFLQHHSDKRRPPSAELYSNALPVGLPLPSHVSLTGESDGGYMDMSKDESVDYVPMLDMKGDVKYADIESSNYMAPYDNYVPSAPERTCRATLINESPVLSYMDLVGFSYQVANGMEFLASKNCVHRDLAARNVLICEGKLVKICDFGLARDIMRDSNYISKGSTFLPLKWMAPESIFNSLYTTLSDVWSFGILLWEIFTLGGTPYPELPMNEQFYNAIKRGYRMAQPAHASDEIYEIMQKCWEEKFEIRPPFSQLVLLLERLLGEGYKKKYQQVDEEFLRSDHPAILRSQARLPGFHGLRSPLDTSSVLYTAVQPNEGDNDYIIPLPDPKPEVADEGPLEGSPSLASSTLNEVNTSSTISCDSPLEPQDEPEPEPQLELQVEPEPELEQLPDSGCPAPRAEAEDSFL

SRPK2 = target: T9, SRPK2 (Homo sapiens, UniProt P78362); assay: Kinase panel (Millipore); assay type: biochemical; conditions: 1 µM, ATP at Km
T9 construct: purchased Millipore (KinaseProfiler) kinase panel

[2] = target: N neuronal alpha 4beta 2 (h) (Homo sapiens, UniProt P17787+P43681); assay: biochemical; conditions: read-out: % Inhibition of Control Specific Binding
FLT4 = target: T10, FLT4 (Homo sapiens, UniProt P35916); assay: Kinase panel (Millipore); assay type: biochemical; conditions: 1 µM, ATP at Km
T10 construct: purchased Millipore (KinaseProfiler) kinase panel

IR = target: T11, IR (Homo sapiens, UniProt P06213); assay: Kinase panel (Millipore); assay type: biochemical; conditions: 1 µM, ATP at Km
T11 construct: purchased Millipore (KinaseProfiler) kinase panel

GRK7 = GRK7 (Homo sapiens, UniProt Q8WTQ7); assay: Kinase panel (Millipore); assay type: biochemical; conditions: 1 µM, ATP at Km
MT3 (ML2) = conditions: 10 µM, agonist radioligand
BTK = BTK (Homo sapiens, UniProt Q06187); assay: Kinase panel (Millipore); assay type: biochemical; conditions: 1 µM, ATP at Km
CDK2/CYCLINA = CDK2/CYCLINA (Homo sapiens, UniProt P24941); conditions: 1 µM, ATP at Km
NEK3 = target: T12, NEK3 (Homo sapiens, UniProt P51956); assay: Kinase panel (Millipore); assay type: biochemical; conditions: 1 µM, ATP at Km
T12 construct: purchased Millipore (KinaseProfiler) kinase panel

CDK2/CYCLINE = CDK2/CYCLINE (Homo sapiens, UniProt P24941); conditions: 1 µM, ATP at Km
SNK = target: T13, SNK (Homo sapiens, UniProt Q9NYY3); assay: Kinase panel (Millipore); assay type: biochemical; conditions: 1 µM, ATP at Km
T13 construct: purchased Millipore (KinaseProfiler) kinase panel
T13 sequence (Q9NYY3 whole entry): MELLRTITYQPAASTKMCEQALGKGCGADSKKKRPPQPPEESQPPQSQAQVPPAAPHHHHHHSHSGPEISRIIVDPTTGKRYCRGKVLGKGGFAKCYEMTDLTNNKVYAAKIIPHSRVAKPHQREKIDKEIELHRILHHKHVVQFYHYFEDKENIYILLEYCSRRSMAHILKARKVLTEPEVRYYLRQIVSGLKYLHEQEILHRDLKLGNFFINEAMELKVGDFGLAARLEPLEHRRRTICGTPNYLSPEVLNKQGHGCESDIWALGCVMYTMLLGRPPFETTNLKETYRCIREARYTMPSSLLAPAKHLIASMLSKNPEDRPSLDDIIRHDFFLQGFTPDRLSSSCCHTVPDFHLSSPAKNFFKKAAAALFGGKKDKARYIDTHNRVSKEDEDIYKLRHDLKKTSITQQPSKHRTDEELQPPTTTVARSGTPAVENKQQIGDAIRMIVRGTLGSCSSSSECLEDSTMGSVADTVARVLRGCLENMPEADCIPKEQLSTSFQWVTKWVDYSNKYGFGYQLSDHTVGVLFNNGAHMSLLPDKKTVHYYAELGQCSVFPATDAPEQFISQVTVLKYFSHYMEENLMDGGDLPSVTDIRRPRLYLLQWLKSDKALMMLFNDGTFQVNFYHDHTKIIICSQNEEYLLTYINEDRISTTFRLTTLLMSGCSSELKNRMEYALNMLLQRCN

alpha 2A (h) = alpha 2A (h) (Homo sapiens, UniProt P08913); assay: biochemical; conditions: read-out: % Inhibition of Control Specific Binding
CSK = CSK (Homo sapiens, UniProt P41240); assay: Kinase panel (Millipore); assay type: biochemical; conditions: 1 µM, ATP at Km
CKIT(V654A) = CKIT(V654A) (Homo sapiens, UniProt P10721, V654A); conditions: 1 µM, ATP at Km
IKKALPHA = target: T14, IKKALPHA (Homo sapiens, UniProt O15111); assay: Kinase panel (Millipore); assay type: biochemical; conditions: 1 µM, ATP at Km
T14 construct: purchased Millipore (KinaseProfiler) kinase panel

EPHB3 = target: T15, EPHB3 (Homo sapiens, UniProt P54753); assay: Kinase panel (Millipore); assay type: biochemical; conditions: 1 µM, ATP at Km
T15 construct: purchased Millipore (KinaseProfiler) kinase panel
T15 sequence (P54753 34-998): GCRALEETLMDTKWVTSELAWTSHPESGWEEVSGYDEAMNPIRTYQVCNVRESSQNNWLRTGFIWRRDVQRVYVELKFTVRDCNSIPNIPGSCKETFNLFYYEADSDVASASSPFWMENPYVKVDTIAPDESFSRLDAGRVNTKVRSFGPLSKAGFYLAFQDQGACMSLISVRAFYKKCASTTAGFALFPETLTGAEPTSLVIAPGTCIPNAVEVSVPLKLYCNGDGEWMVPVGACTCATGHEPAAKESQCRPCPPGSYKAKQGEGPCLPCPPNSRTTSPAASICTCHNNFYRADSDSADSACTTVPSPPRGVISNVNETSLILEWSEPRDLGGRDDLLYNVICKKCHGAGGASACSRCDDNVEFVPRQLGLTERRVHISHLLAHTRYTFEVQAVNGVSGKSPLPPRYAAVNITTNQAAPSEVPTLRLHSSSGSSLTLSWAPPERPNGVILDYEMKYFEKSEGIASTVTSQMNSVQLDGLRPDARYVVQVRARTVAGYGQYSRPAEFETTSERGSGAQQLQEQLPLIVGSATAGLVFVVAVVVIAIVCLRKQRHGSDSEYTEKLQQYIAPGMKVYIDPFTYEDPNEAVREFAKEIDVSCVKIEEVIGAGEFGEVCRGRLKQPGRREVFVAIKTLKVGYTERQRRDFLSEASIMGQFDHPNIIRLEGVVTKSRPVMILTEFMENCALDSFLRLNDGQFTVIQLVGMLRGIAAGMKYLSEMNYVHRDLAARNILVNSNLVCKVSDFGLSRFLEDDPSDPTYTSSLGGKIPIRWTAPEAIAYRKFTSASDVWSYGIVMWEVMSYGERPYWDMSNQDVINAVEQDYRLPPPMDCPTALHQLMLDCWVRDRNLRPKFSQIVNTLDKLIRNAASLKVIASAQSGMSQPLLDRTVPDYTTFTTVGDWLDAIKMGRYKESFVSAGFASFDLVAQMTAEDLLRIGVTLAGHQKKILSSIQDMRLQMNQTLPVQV

MELK = target: T16, MELK (Homo sapiens, UniProt Q14680); assay: Kinase panel (Millipore); assay type: biochemical; conditions: 1 µM, ATP at Km
T16 construct: purchased Millipore (KinaseProfiler) kinase panel
T16 sequence (Q14680 whole entry): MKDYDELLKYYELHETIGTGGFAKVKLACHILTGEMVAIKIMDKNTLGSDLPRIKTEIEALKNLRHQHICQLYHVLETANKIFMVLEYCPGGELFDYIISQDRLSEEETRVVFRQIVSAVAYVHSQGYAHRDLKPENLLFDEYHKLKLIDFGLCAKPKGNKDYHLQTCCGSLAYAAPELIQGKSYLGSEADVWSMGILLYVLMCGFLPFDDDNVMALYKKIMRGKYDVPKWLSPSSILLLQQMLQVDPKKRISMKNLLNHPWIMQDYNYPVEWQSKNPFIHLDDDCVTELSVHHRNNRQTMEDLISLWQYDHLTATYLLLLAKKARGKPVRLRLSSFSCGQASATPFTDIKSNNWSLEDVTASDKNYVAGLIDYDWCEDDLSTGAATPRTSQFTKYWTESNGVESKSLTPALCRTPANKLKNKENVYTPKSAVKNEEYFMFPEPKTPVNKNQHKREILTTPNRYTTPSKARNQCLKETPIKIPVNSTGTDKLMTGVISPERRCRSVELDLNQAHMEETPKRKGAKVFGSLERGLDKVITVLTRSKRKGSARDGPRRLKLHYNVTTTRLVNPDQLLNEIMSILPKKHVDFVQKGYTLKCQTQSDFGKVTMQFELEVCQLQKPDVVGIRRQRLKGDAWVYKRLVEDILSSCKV

PKCETA = target: T17, PKCETA (Homo sapiens, UniProt P24723); assay: Kinase panel (Millipore); assay type: biochemical; conditions: 1 µM, ATP at Km
T17 construct: purchased Millipore (KinaseProfiler) kinase panel

PKBBETA = PKBBETA (Homo sapiens, UniProt P31751); assay: Kinase panel (Millipore); assay type: biochemical; conditions: 1 µM, ATP at Km
Sequence of PKBBETA (P31751 whole entry): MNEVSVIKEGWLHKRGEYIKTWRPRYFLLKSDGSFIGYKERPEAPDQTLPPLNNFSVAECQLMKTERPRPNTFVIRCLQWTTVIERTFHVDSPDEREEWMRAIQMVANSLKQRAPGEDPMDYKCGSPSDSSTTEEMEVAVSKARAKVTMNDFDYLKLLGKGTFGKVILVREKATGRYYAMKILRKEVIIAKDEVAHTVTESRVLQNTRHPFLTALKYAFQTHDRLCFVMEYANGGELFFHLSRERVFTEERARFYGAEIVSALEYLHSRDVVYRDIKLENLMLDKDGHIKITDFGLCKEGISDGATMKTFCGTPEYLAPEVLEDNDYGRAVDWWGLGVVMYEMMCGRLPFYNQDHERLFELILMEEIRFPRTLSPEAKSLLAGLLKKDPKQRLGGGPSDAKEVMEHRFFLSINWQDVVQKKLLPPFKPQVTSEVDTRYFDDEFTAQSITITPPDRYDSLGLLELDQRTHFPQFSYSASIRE

CK1GAMMA2 = CK1GAMMA2 (Homo sapiens, UniProt P78368); assay: Kinase panel (Millipore); assay type: biochemical; conditions: 1 µM, ATP at Km
Sequence of CK1GAMMA2 (P78368 whole entry): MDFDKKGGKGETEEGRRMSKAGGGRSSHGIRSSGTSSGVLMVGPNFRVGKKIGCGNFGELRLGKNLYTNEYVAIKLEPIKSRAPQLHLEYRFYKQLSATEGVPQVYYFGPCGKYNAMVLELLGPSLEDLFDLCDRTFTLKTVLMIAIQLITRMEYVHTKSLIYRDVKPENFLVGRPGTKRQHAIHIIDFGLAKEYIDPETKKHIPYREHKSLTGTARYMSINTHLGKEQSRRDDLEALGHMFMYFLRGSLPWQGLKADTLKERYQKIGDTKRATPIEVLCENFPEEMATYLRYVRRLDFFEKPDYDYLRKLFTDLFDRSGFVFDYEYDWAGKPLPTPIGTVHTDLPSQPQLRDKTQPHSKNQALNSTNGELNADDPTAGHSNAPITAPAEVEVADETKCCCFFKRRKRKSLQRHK

SYK = SYK (Homo sapiens, UniProt P43405); assay: Kinase panel (Millipore); assay type: biochemical; conditions: 1 µM, ATP at Km

Cn1ncc2cc(-c3cnc(N)c(Cl)c3N3CCC4(CCNC4=O)CC3)ccc21 [Compound 109, 8-(2-Amino-3-chloro-5-(1-methyl-1H-indazol-5-yl)pyridin-4-yl)-2,8-diazaspiro[4.5]decan-1-one]
% effect (KDR): -26%
% effect (PLK3): -2%
inhibition at 10 µM (5-HT2C (h)): 6%
% effect ([…](V561D)): 0%
% effect (CDK6/CYCLIND3): 5%
% Inhibition of Control Specific Binding [1]: -3%
% effect (LKB1): 5%
% effect ([…](D842V)): -10%
% effect (MAPK1): 7%
% effect (SAPK4): -1%
% effect (cMET (D1246N)): -2%
% effect (FMS(Y969C)): -43%
% effect (MEK1): -13%
% effect (PRKX): -9%
% effect (SAPK2A): -6%
% effect (DCAMKL2): -3%
% Inhibition of Control Specific Binding (TNF-alpha (h)): -8%
inhibition at 10 µM (N muscle-type (h)): 11%
% effect (MLK1): -10%
inhibition at 10 µM (CCR2 (h)): -9%
% effect (PDGFRBETA): -9%
% effect (SRPK2): 4%
inhibition at 10 µM [2]: -6%
% effect (FLT4): -38%
% effect (IR): -5%
% effect (GRK7): -1%
% Inhibition of Control Specific Binding (MT3 (ML2)): 71%
% effect (BTK): 6%
% effect (CDK2/CYCLINA): 1%
% effect (NEK3): -11%
% effect (CDK2/CYCLINE): 3%
% effect (SNK): 11%
inhibition at 10 µM (alpha 2A (h)): 11%
% effect (CSK): 8%
% effect (CKIT(V654A)): 9%
% effect (IKKALPHA): -17%
% effect (EPHB3): 5%
% effect (MELK): 3%
% effect (PKCETA): 6%
% effect (PKBBETA): -21%
% effect (CK1GAMMA2): 5%
% effect (SYK): 2%
